Patent US20200377885A1, “COMPOSITIONS AND METHODS FOR THE GENERATION OF NEURONS AND USES THEREOF” (Washington University, priority 2017, published 2020)
Entries after “also recorded” stand apart in the source; their conditions may differ.

How the values were obtained:
HD-MSNs [1] = assay: Spontaneous cell death of HD-MSNs by SYTOX green dead-cell staining; format: cell-based, human; conditions: 0.5 μM added at 30 days post induction, assessed at PID 35, vs DMSO
Method: (§1) In addition, Hoechst 33342 solution (Thermo Fisher Scientific) was added as a counterstain to label all nuclei at a final concentration of 1 μg/ml in culture media. Samples were incubated for at least 10 minutes in 37° C. Images were captured using a Leica DMI 400B inverted microscope with Leica Application Suite (LAS) Advanced Fluorescence. Three images were taken from random areas of each coverslip for at least three biological replicates per experiment. Quantification performed by counting number of SYTOX-positive cells over total Hoechst signal.
(§2) The ATM-Kinase inhibitor KU-60019 was obtained from Abcam (ab144817), solubilized in DMSO and directly added to the cell culture media for a final concentration of 0.5 μM at 30 days post miR-9/9*-124 induction, then cell death was assessed by SYTOX at PID 35. Controls were treated with the same volume of DMSO but no drug. At day 35, cells treated with DMSO or KU-60019 also were treated with 1 mM of H2O2 for three hours. SYTOX green/Hoechst stain was added as already described and imaged for scoring.

ATM = ATM (Homo sapiens, UniProt Q13315); conditions: earlier findings; cited from earlier work
Sequence of ATM (Q13315 whole entry, species assumed): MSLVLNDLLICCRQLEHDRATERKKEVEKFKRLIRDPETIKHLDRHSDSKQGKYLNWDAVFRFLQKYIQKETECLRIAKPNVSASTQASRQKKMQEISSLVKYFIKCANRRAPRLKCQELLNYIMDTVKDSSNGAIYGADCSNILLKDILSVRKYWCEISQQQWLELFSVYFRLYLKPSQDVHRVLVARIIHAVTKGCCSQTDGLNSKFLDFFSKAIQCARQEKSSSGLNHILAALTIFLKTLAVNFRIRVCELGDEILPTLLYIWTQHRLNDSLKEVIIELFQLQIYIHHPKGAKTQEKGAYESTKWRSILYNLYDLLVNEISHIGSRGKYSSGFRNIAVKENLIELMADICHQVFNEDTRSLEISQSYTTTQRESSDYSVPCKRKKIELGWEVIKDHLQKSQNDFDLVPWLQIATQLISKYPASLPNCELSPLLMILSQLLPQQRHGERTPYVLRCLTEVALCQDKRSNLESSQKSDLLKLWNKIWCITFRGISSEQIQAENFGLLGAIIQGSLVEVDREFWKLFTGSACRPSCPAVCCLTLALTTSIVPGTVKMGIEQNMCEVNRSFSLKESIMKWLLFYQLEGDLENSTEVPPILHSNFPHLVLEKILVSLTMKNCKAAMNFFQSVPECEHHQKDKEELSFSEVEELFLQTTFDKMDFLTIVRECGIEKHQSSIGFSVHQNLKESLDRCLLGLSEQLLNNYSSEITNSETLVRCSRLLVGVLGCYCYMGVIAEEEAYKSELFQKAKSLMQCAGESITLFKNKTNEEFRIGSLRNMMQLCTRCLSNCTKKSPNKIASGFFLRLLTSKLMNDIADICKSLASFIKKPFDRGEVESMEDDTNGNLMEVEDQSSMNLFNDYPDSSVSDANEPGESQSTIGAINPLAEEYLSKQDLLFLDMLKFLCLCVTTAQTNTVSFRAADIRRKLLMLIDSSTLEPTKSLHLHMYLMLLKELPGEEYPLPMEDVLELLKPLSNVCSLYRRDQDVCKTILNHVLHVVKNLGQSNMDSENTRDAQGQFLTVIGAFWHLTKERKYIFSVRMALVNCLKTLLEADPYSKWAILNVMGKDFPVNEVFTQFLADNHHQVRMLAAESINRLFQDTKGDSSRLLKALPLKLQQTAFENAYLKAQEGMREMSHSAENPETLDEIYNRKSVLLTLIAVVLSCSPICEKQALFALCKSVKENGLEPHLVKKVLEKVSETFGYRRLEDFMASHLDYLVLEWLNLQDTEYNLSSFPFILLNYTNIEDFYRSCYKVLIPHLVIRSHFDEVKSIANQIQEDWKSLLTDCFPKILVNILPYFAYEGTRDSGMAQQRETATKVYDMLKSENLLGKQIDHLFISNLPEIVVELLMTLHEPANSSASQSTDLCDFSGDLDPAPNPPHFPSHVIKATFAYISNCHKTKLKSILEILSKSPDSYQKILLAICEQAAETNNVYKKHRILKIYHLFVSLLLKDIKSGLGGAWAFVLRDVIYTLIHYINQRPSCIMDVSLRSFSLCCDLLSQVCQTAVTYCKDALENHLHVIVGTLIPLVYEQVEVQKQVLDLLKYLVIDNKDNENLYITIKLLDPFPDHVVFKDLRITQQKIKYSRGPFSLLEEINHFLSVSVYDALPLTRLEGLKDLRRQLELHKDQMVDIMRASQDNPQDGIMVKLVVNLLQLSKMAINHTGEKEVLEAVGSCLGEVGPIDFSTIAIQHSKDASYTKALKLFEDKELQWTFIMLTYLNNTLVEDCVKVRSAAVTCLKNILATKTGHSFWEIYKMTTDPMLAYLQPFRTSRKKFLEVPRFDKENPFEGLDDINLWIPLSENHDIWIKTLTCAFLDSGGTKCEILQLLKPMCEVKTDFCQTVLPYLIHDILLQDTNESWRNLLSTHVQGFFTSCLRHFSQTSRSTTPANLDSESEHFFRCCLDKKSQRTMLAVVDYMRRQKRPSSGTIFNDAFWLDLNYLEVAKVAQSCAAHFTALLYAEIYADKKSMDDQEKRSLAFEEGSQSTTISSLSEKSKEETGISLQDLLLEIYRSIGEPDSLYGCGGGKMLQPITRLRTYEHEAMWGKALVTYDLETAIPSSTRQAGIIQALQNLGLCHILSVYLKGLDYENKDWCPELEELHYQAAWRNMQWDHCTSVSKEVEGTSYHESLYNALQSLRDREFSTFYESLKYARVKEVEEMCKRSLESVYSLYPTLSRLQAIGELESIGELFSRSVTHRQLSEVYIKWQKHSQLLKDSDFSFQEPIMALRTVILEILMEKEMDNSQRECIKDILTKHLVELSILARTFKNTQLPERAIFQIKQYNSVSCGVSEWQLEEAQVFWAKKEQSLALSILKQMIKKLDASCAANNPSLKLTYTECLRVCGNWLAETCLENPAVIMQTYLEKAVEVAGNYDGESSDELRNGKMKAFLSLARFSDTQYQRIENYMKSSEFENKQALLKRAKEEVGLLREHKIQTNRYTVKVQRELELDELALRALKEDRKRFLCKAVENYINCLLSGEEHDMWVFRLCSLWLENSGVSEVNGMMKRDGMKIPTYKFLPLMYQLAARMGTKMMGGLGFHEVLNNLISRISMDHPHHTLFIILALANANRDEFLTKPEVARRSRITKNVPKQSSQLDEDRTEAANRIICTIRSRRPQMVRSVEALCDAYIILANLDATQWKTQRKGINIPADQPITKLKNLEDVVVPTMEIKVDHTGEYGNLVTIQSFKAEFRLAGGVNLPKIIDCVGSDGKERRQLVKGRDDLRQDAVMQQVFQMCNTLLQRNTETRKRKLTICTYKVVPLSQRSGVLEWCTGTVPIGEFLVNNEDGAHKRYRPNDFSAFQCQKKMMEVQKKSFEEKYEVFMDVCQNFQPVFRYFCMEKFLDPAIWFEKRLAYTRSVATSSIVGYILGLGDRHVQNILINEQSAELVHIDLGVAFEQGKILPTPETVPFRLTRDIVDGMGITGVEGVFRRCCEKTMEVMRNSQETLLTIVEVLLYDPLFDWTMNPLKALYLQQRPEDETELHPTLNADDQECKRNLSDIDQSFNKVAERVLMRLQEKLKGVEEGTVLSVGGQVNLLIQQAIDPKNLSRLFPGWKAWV

HD-MSNs [2] = assay: H2O2-induced oxidative stress cell death of HD-MSNs (SYTOX green/Hoechst); format: cell-based, human; conditions: 0.5 μM, 1 mM H2O2 for three hours at day 35, vs DMSO
Method: as §1, §2

[3] = test system: GFP-74Q-expressing HEF cells; assay: Inclusion body formation in GFP-74Q-expressing HEFs after proteasome inhibition; format: cell-based, human; conditions: 5 μM, 24 hours later, vs DMSO
Excerpt: Because the findings contrasted with previous studies that report the lack of mHTT aggregates in iPSC-derived neurons from HD patients, it was decided to directly test if altering the cellular state of adult HD fibroblasts to an embryonic-like stage, a process that effectively erases aging markers, would affect the aggregation propensity of mHTT in HD-MSNs. HD-iPSCs were derived from adult HD fibroblasts and these stem cells were differentiated back into fibroblasts using a method for generating human embryonic fibroblasts (HEFs) (see e.g., FIG. 26A and FIG. 27A). […] HD.40-HEFs expressed fibroblast markers vimentin and fibronectin (see e.g., FIG. 26B). […] Upon direct conversion of HD.40-HEFs to MSNs (human embryonic MSNs, heMSNs), little to no aggregated mHTT was detectable in HD-heMSNs at PID 21 (see e.g., FIG. FIGS. 24B and 24C). […] It was then decided to investigate differences in mHTT aggregation propensity to elucidate the contribution of aging to protein aggregation in HD. […] To directly test if proteasome activity was preventing the formation of inclusions in HEFs, GFP-74Q-expressing HEF cells were treated with the proteasome inhibitor lactacystin, and assessed the presence of inclusions 24 hours later. […]

Structure (SMILES) | levels of spontaneous cell death (SYTOX-positive cells over Hoechst) (HD-MSNs [1]) | mHTT-induced cell death (ATM) | levels of stress-induced cell death (H2O2-induced oxidative stress) (HD-MSNs [2]) | number of cells bearing inclusions (IBs) [3] | number of cells bearing inclusions (IBs) ([3]; listed as Lactacystin)
C[C@@H]1CN(CC(=O)Nc2ccc3c(c2)Cc2cccc(-c4cc(=O)cc(N5CCOCC5)o4)c2S3)C[C@H](C)O1 [KU60019] | significantly reduced; also recorded: reduces cell death levels | reduce mHTT-induced cell death | significantly reduced; also recorded: protects HD-MSNs against H2O2-induced oxidative stress | – | –
CC(=O)N[C@@H](CSC(=O)[C@]1([C@@H](O)C(C)C)NC(=O)[C@H](C)[C@@H]1O)C(=O)O [lactacystin] | – | – | – | induces IBs | significantly increased
